PubChem BioAssay AID322 (DTP/NCI, 2004)
Values joined by “and” are separate entries in the source; they are usually repeats but may differ in a detail not shown here. Equal values may be shown once. Inconclusive results and toxic doses are left out. The calls were made as follows: active = survival T/C of 150% or more; inactive = T/C below 125% in these data.

System: CD2F1 mice, P388/ADR leukemia ip, median survival T/C
Assay: NCI In Vivo Anticancer Drug Screen. Data for tumor model P388 Leukemia resistant to Adriamycin; NSC 123127, Developed at Scr 08 (intraperitoneal) in CD2F1 (CDF1) mice
Conditions: endpoint: median survival time, higher = longer survival
Method: The antitumor activity of compounds was measured in mice bearing transplantable tumors. Survival or tumor size were measured and the results are expressed as the measurement made in the treated group (T) divided by the measurement made in the vehicle treated control group (C). The tumor model used in this assay is P388 Leukemia resistant to Adriamycin; NSC 123127, Developed at Scr 08 (intraperitoneal) in CD2F1 (CDF1) mice

[1] = dose: 25.0 mg/kg/injection, schedule: Q01DX005 (ip), vehicle: Klucel (hydroxypropylcellulose) (HPC)
[2] = dose: 50.0 mg/kg/injection, schedule: Q01DX005 (ip), vehicle: Klucel (hydroxypropylcellulose) (HPC)
[3] = dose: 100.0 mg/kg/injection, schedule: Q01DX005 (ip), vehicle: Klucel (hydroxypropylcellulose) (HPC)
[4] = dose: 200.0 mg/kg/injection, schedule: Q01DX005 (ip), vehicle: Klucel (hydroxypropylcellulose) (HPC)
[5] = dose: 3.12 mg/kg/injection, schedule: Q01DX005 (ip), vehicle: saline
[6] = dose: 25.0 mg/kg/injection, schedule: Q01DX005 (ip), vehicle: saline
[7] = dose: 25.0 mg/kg/injection, schedule: Q01DX005 (ip), vehicle: suspension in saline
[8] = dose: 75.0 mg/kg/injection, schedule: Q01DX009 (ip), vehicle: saline with Tween-80

Measured: T/C

C=C1c2cccc(O)c2C(O)=C2C(=O)[C@]3(O)C(O)=C(C(N)=O)C(=O)[C@@H](N(C)C)[C@@H]3[C@@H](O)[C@H]12
inactive: dose: 21.6 mg/kg/injection, schedule: Q01DX005 (ip), vehicle: Klucel (hydroxypropylcellulose) (HPC) 114 % of control | [1] 109 % of control | dose: 36.0 mg/kg/injection, schedule: Q01DX005 (ip), vehicle: Klucel (hydroxypropylcellulose) (HPC) 97 % of control and 100 % of control | [2] 118 % of control | [3] 99 % of control and 112 % of control | dose: 166.66 mg/kg/injection, schedule: Q01DX005 (ip), vehicle: Klucel (hydroxypropylcellulose) (HPC) 117 % of control | [4] 119 % of control
226 % of control and 100 % of control: dose: 60.0 mg/kg/injection, schedule: Q01DX005 (ip), vehicle: Klucel (hydroxypropylcellulose) (HPC)

CN(Cc1cnc2nc(N)nc(N)c2n1)c1ccc(C(=O)N[C@@H](CCC(=O)O)C(=O)O)cc1
inactive: dose: 0.38 mg/kg/injection, schedule: Q01DX005 (ip), vehicle: sodium bicarbonate 122 % of control
active: dose: 0.75 mg/kg/injection, schedule: Q01DX005 (ip), vehicle: sodium bicarbonate 155 % of control | dose: 1.5 mg/kg/injection, schedule: Q01DX005 (ip), vehicle: sodium bicarbonate 179 % of control | dose: 3.0 mg/kg/injection, schedule: Q01DX005 (ip), vehicle: sodium bicarbonate 191 % of control and 195 % of control

COc1cccc(Sc2ccc([N+](=O)[O-])c3no[n+]([O-])c23)c1
inactive: dose: 1.56 mg/kg/injection, schedule: Q01DX005 (ip), vehicle: saline with Tween-80 98 % of control | dose: 3.12 mg/kg/injection, schedule: Q01DX005 (ip), vehicle: saline with Tween-80 100 % of control | dose: 6.25 mg/kg/injection, schedule: Q01DX005 (ip), vehicle: saline with Tween-80 107 % of control | dose: 12.5 mg/kg/injection, schedule: Q01DX005 (ip), vehicle: saline with Tween-80 110 % of control | dose: 25.0 mg/kg/injection, schedule: Q01DX005 (ip), vehicle: saline with Tween-80 101 % of control

COc1cccc2c1C(CO)N1C(C#N)C3CC(C(=O)O)C(C1C2)N3C (configuration not stated)
active: dose: 0.78 mg/kg/injection, schedule: Q01DX005 (ip), vehicle: suspension in saline 186 % of control | dose: 1.57 mg/kg/injection, schedule: Q01DX005 (ip), vehicle: suspension in saline 280 % of control | [5] 200 % of control | dose: 3.13 mg/kg/injection, schedule: Q01DX005 (ip), vehicle: suspension in saline 224 % of control | dose: 6.25 mg/kg/injection, schedule: Q01DX005 (ip), vehicle: saline 248 % of control | dose: 6.25 mg/kg/injection, schedule: Q01DX005 (ip), vehicle: suspension in saline 271 % of control | dose: 12.5 mg/kg/injection, schedule: Q01DX005 (ip), vehicle: saline 266 % of control | dose: 12.5 mg/kg/injection, schedule: Q01DX005 (ip), vehicle: suspension in saline 214 % of control | [6] 272 % of control | [7] 252 % of control

CC1=C(C(N)=O)C(c2ccccc2)NC(=S)N1 (configuration not stated)
inactive: dose: 3.12 mg/kg/injection, schedule: Q01DX005 (ip), vehicle: Klucel (hydroxypropylcellulose) (HPC) 99 % of control | dose: 6.25 mg/kg/injection, schedule: Q01DX005 (ip), vehicle: Klucel (hydroxypropylcellulose) (HPC) 101 % of control | dose: 12.5 mg/kg/injection, schedule: Q01DX005 (ip), vehicle: Klucel (hydroxypropylcellulose) (HPC) 98 % of control | [1] 96 % of control and 107 % of control | [2] 96 % of control

O=C(Nc1ccccc1)c1c(O)[nH]c(=S)[nH]c1=O
active: dose: 30.0 mg/kg/injection, schedule: Q01DX009 (ip), vehicle: saline with Tween-80 173 % of control | dose: 44.0 mg/kg/injection, schedule: Q01DX009 (ip), vehicle: saline with Tween-80 181 % of control | dose: 67.0 mg/kg/injection, schedule: Q01DX009 (ip), vehicle: saline with Tween-80 160 % of control | [8] 170 % of control | dose: 100.0 mg/kg/injection, schedule: Q01DX009 (ip), vehicle: saline with Tween-80 173 % of control and 181 % of control | dose: 125.0 mg/kg/injection, schedule: Q01DX009 (ip), vehicle: saline with Tween-80 195 % of control | dose: 150.0 mg/kg/injection, schedule: Q01DX009 (ip), vehicle: saline with Tween-80 197 % of control

O=C(O)c1cc(C(=O)O)c(C(=O)O)cc1C(=O)O.[NH2-].[NH2-].[NH2-].[NH2-].[Pt+2].[Pt+2]
active: [6] 167 % of control | [7] 150 % of control | dose: 41.67 mg/kg/injection, schedule: Q01DX005 (ip), vehicle: suspension in saline 178 % of control
inactive: [5] 123 % of control

O=CC(CO)CC(C=O)n1cnc2c(=O)[nH]cnc21 (configuration not stated)
inactive: [6] 122 % of control and 124 % of control
active: dose: 100.0 mg/kg/injection, schedule: Q01DX005 (ip), vehicle: saline 151 % of control | dose: 200.0 mg/kg/injection, schedule: Q01DX005 (ip), vehicle: saline 160 % of control and 170 % of control | dose: 400.0 mg/kg/injection, schedule: Q01DX005 (ip), vehicle: saline 169 % of control and 170 % of control

NC(N)=NS(=O)(=O)c1ccc(NCc2c3ccccc3nc3ccccc23)cc1
inactive: dose: 50.0 mg/kg/injection, schedule: Q04DX003 (ip), vehicle: Klucel (hydroxypropylcellulose) (HPC) 101 % of control | dose: 100.0 mg/kg/injection, schedule: Q04DX003 (ip), vehicle: Klucel (hydroxypropylcellulose) (HPC) 97 % of control | dose: 200.0 mg/kg/injection, schedule: Q04DX003 (ip), vehicle: Klucel (hydroxypropylcellulose) (HPC) 100 % of control | dose: 400.0 mg/kg/injection, schedule: Q04DX003 (ip), vehicle: Klucel (hydroxypropylcellulose) (HPC) 87 % of control

COc1cc(C)c(C2NC(=O)c3ccccc3N2)cc1C (configuration not stated)
inactive: [2] 109 % of control | [3] 116 % of control | [4] 113 % of control | dose: 400.0 mg/kg/injection, schedule: Q01DX005 (ip), vehicle: Klucel (hydroxypropylcellulose) (HPC) 124 % of control
active: dose: 288.0 mg/kg/injection, schedule: Q01DX005 (ip), vehicle: Klucel (hydroxypropylcellulose) (HPC) 158 % of control | dose: 480.0 mg/kg/injection, schedule: Q01DX005 (ip), vehicle: Klucel (hydroxypropylcellulose) (HPC) 153 % of control | dose: 800.0 mg/kg/injection, schedule: Q01DX005 (ip), vehicle: Klucel (hydroxypropylcellulose) (HPC) 155 % of control and 206 % of control | dose: 1333.0 mg/kg/injection, schedule: Q01DX005 (ip), vehicle: Klucel (hydroxypropylcellulose) (HPC) 207 % of control

Nc1ccc2c(c1)CN1C(=O)c3ccccc3C1=N2
inactive: dose: 75.0 mg/kg/injection, schedule: Q01DX009 (oral), vehicle: saline with Tween-80 102 % of control | dose: 112.0 mg/kg/injection, schedule: Q01DX009 (ip), vehicle: saline with Tween-80 120 % of control | dose: 112.0 mg/kg/injection, schedule: Q01DX009 (oral), vehicle: saline with Tween-80 104 % of control | dose: 169.0 mg/kg/injection, schedule: Q01DX009 (ip), vehicle: saline with Tween-80 121 % of control | dose: 169.0 mg/kg/injection, schedule: Q01DX009 (oral), vehicle: saline with Tween-80 105 % of control | dose: 252.2 mg/kg/injection, schedule: Q01DX009 (oral), vehicle: saline with Tween-80 118 % of control | dose: 378.2 mg/kg/injection, schedule: Q01DX009 (oral), vehicle: saline with Tween-80 124 % of control
active: dose: 33.0 mg/kg/injection, schedule: Q01DX009 (ip), vehicle: saline with Tween-80 215 % of control (2×) and 265 % of control | dose: 50.0 mg/kg/injection, schedule: Q01DX009 (ip), vehicle: saline with Tween-80 270 % of control and 278 % of control and 297 % of control | [8] 277 % of control and 297 % of control and 336 % of control

CCCCCCCCCCCCN1C(C)=CS/C1=C\C=C\c1scc(C)[n+]1CCCCCCCCCCCC
inactive: dose: 0.75 mg/kg/injection, schedule: Q01DX005 (ip), vehicle: saline with Tween-80 123 % of control | dose: 1.5 mg/kg/injection, schedule: Q01DX005 (ip), vehicle: saline with Tween-80 117 % of control | dose: 3.0 mg/kg/injection, schedule: Q01DX005 (ip), vehicle: saline with Tween-80 109 % of control

CC[C@]1(O)C[C@H]2CN(CCc3c([nH]c4ccccc34)[C@@](C(=O)OC)(c3cc4c(cc3OC)N(C=O)[C@H]3[C@@](O)(C(=O)OC)[C@H](OC(C)=O)[C@]5(CC)C=CCN6CC[C@]43[C@@H]65)C2)C1
inactive: dose: 0.43 mg/kg/injection, schedule: Q04DX002 (ip), vehicle: saline 109 % of control | dose: 0.72 mg/kg/injection, schedule: Q04DX002 (ip), vehicle: saline 111 % of control | dose: 1.2 mg/kg/injection, schedule: Q04DX002 (ip), vehicle: saline 109 % of control | dose: 2.0 mg/kg/injection, schedule: Q04DX002 (ip), vehicle: saline 103 % of control | dose: 3.33 mg/kg/injection, schedule: Q04DX002 (ip), vehicle: saline 115 % of control
